According to PubChem BioAssay (NCI):
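At the GI50, growth is halved. The concentration for full growth arrest is given as TGI.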

Key:
Experiment in all cases: NCI-60 cell line screen, 384-well format
[1] = tested on: LOX IMVI melanoma
[2] = tested on: CAKI-1 renal
[3] = tested on: HOP-62 NSCLC
[4] = tested on: EKVX NSCLC
[5] = tested on: OVCAR-5 ovarian
[6] = tested on: HOP-92 NSCLC
[7] = tested on: SF-539 CNS
[8] = tested on: A498 renal
[9] = tested on: HCC-2998 colon
[10] = tested on: OVCAR-3 ovarian
[11] = tested on: SW-620 colon
[12] = tested on: SN12C renal
[13] = tested on: A549 NSCLC
[14] = tested on: PC-3 prostate
[15] = tested on: HT29 colon
[16] = tested on: COLO 205 colon
[17] = tested on: NCI/ADR-RES ovarian
[18] = tested on: NCI-H23 lung
[19] = tested on: UO-31 renal
[20] = tested on: OVCAR-4 ovarian
[21] = tested on: SK-OV-3 ovarian
[22] = tested on: UACC-257 melanoma
[23] = tested on: RPMI-8226 leukemia
[24] = tested on: TK-10 renal
[25] = tested on: HCT-15 colon
[26] = tested on: SR leukemia
[27] = tested on: NCI-H522 lung
[28] = tested on: MCF7 breast
[29] = tested on: HL-60(TB) leukemia
[30] = tested on: MDA-MB-435 melanoma
[31] = tested on: ACHN renal
[32] = tested on: IGROV1 ovarian
[33] = tested on: NCI-H226 lung
[34] = tested on: SNB-75 CNS
[35] = tested on: UACC-62 melanoma
[36] = tested on: NCI-H460 NSCLC
[37] = tested on: SNB-19 CNS
[38] = tested on: RXF 393 renal
[39] = tested on: SF-268 CNS
[40] = tested on: M14 melanoma
[41] = tested on: CCRF-CEM leukemia
[42] = tested on: SK-MEL-5 melanoma
[43] = tested on: MALME-3M melanoma
[44] = tested on: MOLT-4 leukemia
[45] = tested on: DU-145 prostate
[46] = tested on: NCI-H322M lung
[47] = tested on: MDA-MB-468 breast
[48] = tested on: T-47D breast
[49] = tested on: KM12 colon
[50] = tested on: K-562 leukemia
[51] = tested on: MDA-MB-231 breast
[52] = tested on: SK-MEL-28 melanoma
[53] = tested on: OVCAR-8 ovarian
[54] = tested on: U251 glioblastoma
[55] = tested on: HS 578T breast
[56] = tested on: 786-0 renal
[57] = tested on: BT-549 breast
[58] = tested on: SF-295 CNS

SMILES: CN(C[C@@H]1COCCO1)S(=O)(=O)Nc1ccc2ccc3ncc(-c4cnn(C)c4)cc3c(=O)c2c1
- GI50 [1]: 5.53 µM
- TGI [1]: > 100 µM
- GI50 [2]: 1.89 µM
- TGI [2]: > 100 µM
- GI50 [3]: 5.14 µM
- TGI [3]: > 100 µM
- GI50 [4]: 16.2 µM
- TGI [4]: > 100 µM
- GI50 [5]: 24 µM
- TGI [5]: > 100 µM
- GI50 [6]: 2.08 µM
- TGI [6]: 10.8 µM
- GI50 [7]: 1.63 µM
- TGI [7]: 15.2 µM
- GI50 [8]: 0.808 µM
- TGI [8]: 62.5 µM
- GI50 [9]: 39.6 µM
- TGI [9]: > 100 µM
- GI50 [10]: 12.3 µM
- TGI [10]: > 100 µM
- GI50 [11]: 7.12 µM
- TGI [11]: > 100 µM
- GI50 [12]: 1.64 µM
- TGI [12]: 8.8 µM
- GI50 [13]: 8.08 µM
- TGI [13]: > 100 µM
- GI50 [14]: 5.71 µM
- TGI [14]: > 100 µM
- GI50 [15]: 14.4 µM
- TGI [15]: > 100 µM
- GI50 [16]: 24.4 µM
- TGI [16]: > 100 µM
- GI50 [17]: 3.56 µM
- TGI [17]: 25.5 µM
- GI50 [18]: 0.588 µM
- TGI [18]: 5.43 µM
- GI50 [19]: 8.88 µM
- TGI [19]: > 100 µM
- GI50 [20]: 3.34 µM
- TGI [20]: 61 µM
- GI50 [21]: 1.45 µM
- TGI [21]: 14.5 µM
- GI50 [22]: > 100 µM
- TGI [22]: > 100 µM
- GI50 [23]: 1.36 µM
- TGI [23]: 5.21 µM
- GI50 [24]: 8.38 µM
- TGI [24]: > 100 µM
- GI50 [25]: 3.09 µM
- TGI [25]: > 100 µM
- GI50 [26]: 2.49 µM
- TGI [26]: 7.48 µM
- GI50 [27]: 2.68 µM
- TGI [27]: 9.07 µM
- GI50 [28]: 5.9 µM
- TGI [28]: > 100 µM
- GI50 [29]: 3.32 µM
- TGI [29]: 21 µM
- GI50 [30]: 21.6 µM
- TGI [30]: > 100 µM
- GI50 [31]: 2.56 µM
- TGI [31]: > 100 µM
- GI50 [32]: 2.13 µM
- TGI [32]: 9 µM
- GI50 [33]: 1.77 µM
- TGI [33]: > 100 µM
- GI50 [34]: 2.18 µM
- TGI [34]: 21.5 µM
- GI50 [35]: 3.36 µM
- TGI [35]: > 100 µM
- GI50 [36]: 3.45 µM
- TGI [36]: 62.1 µM
- GI50 [37]: 27.2 µM
- TGI [37]: > 100 µM
- GI50 [38]: 5.6 µM
- TGI [38]: > 100 µM
- GI50 [39]: 5.68 µM
- TGI [39]: > 100 µM
- GI50 [40]: 3.67 µM
- TGI [40]: > 100 µM
- GI50 [41]: 3.12 µM
- TGI [41]: 9.46 µM
- GI50 [42]: 2.61 µM
- TGI [42]: 19.2 µM
- GI50 [43]: 3.48 µM
- TGI [43]: 73.6 µM
- GI50 [44]: 1.58 µM
- TGI [44]: 3.03 µM
- GI50 [45]: 5.46 µM
- TGI [45]: > 100 µM
- GI50 [46]: 4.99 µM
- TGI [46]: > 100 µM
- GI50 [47]: 1.63 µM
- TGI [47]: 5.2 µM
- GI50 [48]: 3.5 µM
- TGI [48]: 59.5 µM
- GI50 [49]: 0.31 µM
- TGI [49]: > 100 µM
- GI50 [50]: 6.92 µM
- TGI [50]: > 100 µM
- GI50 [51]: 8.45 µM
- TGI [51]: > 100 µM
- GI50 [52]: > 100 µM
- TGI [52]: > 100 µM
- GI50 [53]: 6.02 µM
- TGI [53]: > 100 µM
- GI50 [54]: 6.34 µM
- TGI [54]: > 100 µM
- GI50 [55]: 1.99 µM
- TGI [55]: 8.1 µM
- GI50 [56]: 5.58 µM
- TGI [56]: > 100 µM
- GI50 [57]: 2.1 µM
- TGI [57]: 45.5 µM
- GI50 [58]: 1.12 µM
- TGI [58]: 10.9 µM
